According to patent US9045493B2, “Furo[3,2-b]- and thieno[3,2-b]pyridin derivatives” (Merck Patent GmbH, priority 2012, dated 2015):

How the values were obtained:
phospho-IRF3 @ Ser 386 = test: Cell test: dose response inhibition of phospho-IRF3 @ Ser 386 in MDA-MB-468 cells; type: cell-based; settings: Homo sapiens, Poly(I:C) stimulation, read-out: IC50 (reference inhibitor, phospho-IRF3 cell test)
Description: Dose Response Inhibition of Phospho-IRF3 @ Ser 386 Cell/MDAMB468/INH/PHOS/IMAG/pIRF3
This assay has been devised in order to assess the efficacy/potency of TBK1/IKKε inhibitor compounds based on the immunocytochemical detection of nuclear localised phospho-IRF3, a target directly downstream of TBK1.
Treatment with Polyinosine-polycytidylic acid (poly(I:C), a synthetic analog of doublestranded RNA (dsRNA), a molecular pattern associated with viral infection which is recognized by Toll-like receptor 3 (TLR3) is used to induce TBK1/IKKe activity and IRF3 phosphorylation at Ser386.
• Day 1: MDA-MB-468 cells are detached with HyQ-Tase, counted, and seeded into a 384-well clear bottom TC-surface plate at density of 10,000 cells per well in a total volume of 35 ul complete medium. Alternatively cells are directly seeded from frozen vials. • Day 2: Cells are pre-treated with inhibitor compounds for 1 h prior to Poly(I:C) stimulation. After 2 h of incubation with Poly(I:C), cells are fixed in (para)formaldehyde (PFA) and permeabilized with methanol (MeOH). The cells are then blocked and incubated with an anti-pIRF3 antibody at 4° C. overnight. • Day 3: The primary antibody is washed off, an AlexaFluor488-conjugated secondary is added, cells are counterstained with propidium iodide followed by image acquisition on IMX Ultra high content reader.

IKKε = molecular target: T1, IKKε (Homo sapiens, UniProt Q14164); test: IKKε kinase assay (384-well Flashplate); type: biochemical; settings: 10 μM ATP, 2 hours at 30° C.; read-out: IKKε enzyme assay IC50
T1 sequence (Q14164 1-716): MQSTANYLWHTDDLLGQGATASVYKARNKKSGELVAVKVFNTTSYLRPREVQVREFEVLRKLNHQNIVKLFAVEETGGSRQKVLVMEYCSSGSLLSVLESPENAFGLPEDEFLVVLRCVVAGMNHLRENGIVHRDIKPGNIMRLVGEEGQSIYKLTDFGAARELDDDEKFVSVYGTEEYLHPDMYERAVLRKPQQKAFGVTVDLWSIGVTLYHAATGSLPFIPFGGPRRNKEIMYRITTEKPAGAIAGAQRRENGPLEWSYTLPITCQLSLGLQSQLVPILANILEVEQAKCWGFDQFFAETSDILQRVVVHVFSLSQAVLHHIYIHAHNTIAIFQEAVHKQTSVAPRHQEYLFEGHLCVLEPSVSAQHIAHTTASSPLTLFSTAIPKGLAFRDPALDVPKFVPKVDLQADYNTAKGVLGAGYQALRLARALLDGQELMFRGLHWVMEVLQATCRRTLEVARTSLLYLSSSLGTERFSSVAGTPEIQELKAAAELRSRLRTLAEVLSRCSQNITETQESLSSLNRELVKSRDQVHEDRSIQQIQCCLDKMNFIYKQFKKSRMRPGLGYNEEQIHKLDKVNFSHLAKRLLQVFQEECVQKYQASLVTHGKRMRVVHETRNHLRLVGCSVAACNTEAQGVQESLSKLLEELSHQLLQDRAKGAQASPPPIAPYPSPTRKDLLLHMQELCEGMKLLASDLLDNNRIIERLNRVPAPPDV
In short: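 1 nM IKKε with 800 nM biotinylated IκBα(19-42) peptide and 10 μM ATP spiked with ^33P-ATP, 2 h at 30 °C in MOPS buffer pH 7.5. EDTA stop, Flashplate capture, washes, then radioactivity counted; IC50 derived.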

[1] = molecular target: T2, TANK binding kinase (TBK1) (Homo sapiens, UniProt Q9UHD2); test: TBK1 enzyme assay (384-well Flashplate kinase assay); type: biochemical; settings: 10 μM ATP, 120 Min at 30° C.
T2 sequence (Q9UHD2 1-729): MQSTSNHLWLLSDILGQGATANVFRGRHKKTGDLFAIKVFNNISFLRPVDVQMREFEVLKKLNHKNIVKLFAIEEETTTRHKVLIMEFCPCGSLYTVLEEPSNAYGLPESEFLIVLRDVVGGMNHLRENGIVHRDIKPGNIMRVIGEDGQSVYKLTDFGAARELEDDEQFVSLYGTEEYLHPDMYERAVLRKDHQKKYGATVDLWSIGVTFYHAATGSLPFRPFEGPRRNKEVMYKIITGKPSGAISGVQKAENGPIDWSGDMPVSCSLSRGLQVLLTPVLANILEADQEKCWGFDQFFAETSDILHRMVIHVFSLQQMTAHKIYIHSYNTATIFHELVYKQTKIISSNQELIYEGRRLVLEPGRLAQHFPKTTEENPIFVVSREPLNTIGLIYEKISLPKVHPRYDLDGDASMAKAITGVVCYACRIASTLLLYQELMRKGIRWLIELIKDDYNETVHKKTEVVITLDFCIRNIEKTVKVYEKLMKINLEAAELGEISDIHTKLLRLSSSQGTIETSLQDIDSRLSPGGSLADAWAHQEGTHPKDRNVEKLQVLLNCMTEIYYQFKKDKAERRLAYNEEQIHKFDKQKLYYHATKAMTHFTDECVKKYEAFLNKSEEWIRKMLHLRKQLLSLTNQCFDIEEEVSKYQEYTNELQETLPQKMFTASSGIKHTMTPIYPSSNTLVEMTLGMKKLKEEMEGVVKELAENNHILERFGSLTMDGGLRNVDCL
In short: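 Radiometric Flashplate assay: 0.6 nM TBK1, 800 nM biotinylated MELK-derived peptide and 10 μM ATP with 33P-ATP, 120 min at 30 °C in MOPS/Mg-acetate buffer pH 7.5. Stopped with EDTA; nonspecific signal defined with 100 nM staurosporine; IC50 from counted radioactivity.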

Compound | IC50 (phospho-IRF3 @ Ser 386) [µM] | IC50 (IKKε) [µM] | IC50 [1] [µM]
O=C(NCCCNc1nc(Nc2cccc(NC(=O)N3CCCC3)c2)ncc1I)c1cccs1 [BX-795] | 0.2 to 0.8 | – | –
N#Cc1cc(-c2ccnc3cc(-c4ccc(C(N)=O)cc4)oc23)ccc1OC1CCOCC1 [Compound A18, 4-{7-[3-cyano-4-(tetrahydro-pyran-4-yloxy)-phenyl]-furo[3,2-b]pyridin-2-yl}-benzamide] | – | 3 to 50 | 3 to 50
COc1cc(-c2cc3nccc(-c4ccc(OC5CCOCC5)c(C#N)c4)c3o2)ccc1C(=O)N(C)C1CCOCC1 [Compound A102] | – | < 0.3 | < 0.3
N#Cc1cc(-c2ccnc3cc(-c4ccc(C(=O)N5CCNCC5)cc4)sc23)ccc1OC1CCOCC1 [Compound A53] | – | < 0.3 | < 0.3
N#Cc1cc(-c2ccnc3cc(-c4cccc(N5CCOCC5)c4)oc23)ccc1OC1CCOCC1 [Compound A2, 5-[2-(3-Morpholin-4-yl-phenyl)-furo[3,2-b]pyridin-7-yl]-2-(tetrahydro-pyran-4-yloxy)-benzonitrile] | – | < 0.3 | < 0.3
N#Cc1cc(-c2ccnc3cc(-c4cnn(C5CCN(CCCO)CC5)c4)oc23)ccc1OC1CCOCC1 [Compound A69] | – | < 0.3 | < 0.3
N#Cc1cc(-c2ccnc3cc(-c4cnn(C5CCNCC5)c4)sc23)ccc1OC1CCOCC1 [Compound A96] | – | < 0.3 | < 0.3
COc1cc(-c2cc3nccc(-c4ccc(OC5CCOCC5)c(C#N)c4)c3o2)ccc1C(=O)NCCN1CCC(F)(F)CC1 [Compound A90] | – | < 0.3 | < 0.3
N#Cc1cc(-c2ccnc3cc(-c4cncc(C(=O)N5CCOCC5)c4)oc23)ccc1OC1CCOCC1 [Compound A65] | – | < 0.3 | < 0.3
COc1cc(-c2cc3nccc(-c4ccc(OC5CCOCC5)c(C#N)c4)c3o2)ccc1C(=O)N1CCC(O)CC1 [Compound A101] | – | < 0.3 | < 0.3
CN(CCO)C(=O)c1ccc(-c2cc3nccc(-c4ccc(OC5CCOC5)c(C#N)c4)c3s2)cc1 (centres unmarked) [Compound A95] | – | < 0.3 | < 0.3
COc1cc(-c2cc3nccc(-c4ccc(OC5CCOCC5)c(C#N)c4)c3o2)ccc1C(=O)NC1CCCN(C)C1 (centres unmarked) [Compound A88] | – | < 0.3 | < 0.3
CC(=O)NCCNC(=O)c1ccc(-c2cc3nccc(-c4ccc(OC5CCOCC5)c(C#N)c4)c3o2)cc1 [Compound A80] | – | < 0.3 | < 0.3
CN1CCN(C(=O)c2ccc(-c3cc4nccc(-c5ccc(OC6CCOC6)c(C#N)c5)c4o3)cc2)CC1 (centres unmarked) [Compound A42] | – | < 0.3 | < 0.3
CN(CCO)C(=O)c1ccc(-c2cc3nccc(-c4ccc(OC5CCOCC5)c(C#N)c4)c3o2)cc1 [Compound A25, 4-{7-[3-cyano-4-(tetrahydro-pyran-4-yloxy)-phenyl]-furo[3,2-b]pyridin-2-yl}-N-(2-hydroxy-ethyl)-N-methyl-benzamide] | – | < 0.3 | < 0.3
CN1CCN(C(=O)c2ccc(-c3cc4nccc(-c5ccc(OCC6CCC6)c(C#N)c5)c4o3)cc2)CC1 [Compound A37] | – | < 0.3 | < 0.3
CN(C)CCNC(=O)c1ccc(-c2cc3nccc(-c4ccc(OC5CCOCC5)c(C#N)c4)c3o2)cc1 [Compound A27, 4-{7-[3-cyano-4-(tetrahydro-pyran-4-yloxy)-phenyl]-furo[3,2-b]pyridin-2-yl}-N-(2-dimethylamino-ethyl)-benzamide] | – | < 0.3 | < 0.3
CCN(CCN(C)C)C(=O)c1ccc(-c2cc3nccc(-c4ccc(OC5CCOCC5)c(C#N)c4)c3o2)cc1OC [Compound A31, 4-{7-[3-cyano-4-(tetrahydro-pyran-4-yloxy)-phenyl]-furo[3,2-b]pyridin-2-yl}-N-(2-dimethylamino-ethyl)-N-ethyl-2-methoxy-benzamide] | – | < 0.3 | < 0.3
N#Cc1cc(-c2ccnc3cc(-c4ccc(C(=O)O)cc4)oc23)ccc1OC1CCOCC1 [Compound A16a, 4-{7-[3-Cyano-4-(tetrahydro-pyran-4-yloxy)-phenyl]-furo[3,2-b]pyridin-2-yl}-benzoic acid] | – | 0.3 to 3 | 0.3 to 3
COc1cc(-c2cc3nccc(-c4ccc(OC5CCOCC5)c(C#N)c4)c3o2)ccc1C(=O)N1CCOC(CCO)C1 (centres unmarked) [Compound A103] | – | < 0.3 | < 0.3
COc1cc(C(=O)N[C@@H]2CCCNC2)ccc1-c1cc2nccc(-c3ccc(OC4CCOCC4)c(C#N)c3)c2o1 [Compound A120] | – | < 0.3 | < 0.3
COCCn1cc(-c2cc3nccc(-c4ccc(OC5CCOCC5)c(C#N)c4)c3o2)cn1 [Compound A8, 5-{2-[1-(2-methoxy-ethyl)-1H-pyrazol-4-yl]-furo[3,2-b]pyridin-7-yl}-2-(tetrahydro-pyran-4-yloxy)-benzonitrile] | – | 0.3 to 3 | 3 to 50
COc1ccccc1-c1cc2nccc(-c3ccc(OC4CCOCC4)c(C#N)c3)c2o1 [Compound A5, 5-[2-(2-methoxy-phenyl)-furo[3,2-b]pyridin-7-yl]-2-(tetrahydro-pyran-4-yloxy)-benzonitrile] | – | < 0.3 | < 0.3
COc1ccc(-c2cc3nccc(-c4ccc(OC5CCOCC5)c(C#N)c4)c3o2)cc1 [Compound A7, 5-[2-(4-methoxy-phenyl)-furo[3,2-b]pyridin-7-yl]-2-(tetrahydro-pyran-4-yloxy)-benzonitrile] | – | 0.3 to 3 | 0.3 to 3
